This note sets out measurements from US7501430B2 (ArQule, Inc., priority 2006, dated 2009).

This experiment addresses T1, mutant B-RAF (Homo sapiens, UniProt P15056, V600E).
T1 construct: purchased Upstate (Charlottesville, Va.)
In words: RAF biochemical assay (MEK-1 phosphorylation, anti-phospho MEK1/2 detection). The conditions noted are these: for IC50: read-out: Mutant B-RAF IC50; for inhibition at 10 µM: read-out: Mutant B-RAF % inhibition. The procedure, abridged:
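Detection is by ELISA: after a 30 min room-temperature reaction, plate-captured GST-MEK-1 is probed with anti-phospho MEK1/2, then an AP-tagged secondary antibody with fluorescent Attophos read-out.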

Structures are written as SMILES.

T1 sequence (P15056 whole entry V600E): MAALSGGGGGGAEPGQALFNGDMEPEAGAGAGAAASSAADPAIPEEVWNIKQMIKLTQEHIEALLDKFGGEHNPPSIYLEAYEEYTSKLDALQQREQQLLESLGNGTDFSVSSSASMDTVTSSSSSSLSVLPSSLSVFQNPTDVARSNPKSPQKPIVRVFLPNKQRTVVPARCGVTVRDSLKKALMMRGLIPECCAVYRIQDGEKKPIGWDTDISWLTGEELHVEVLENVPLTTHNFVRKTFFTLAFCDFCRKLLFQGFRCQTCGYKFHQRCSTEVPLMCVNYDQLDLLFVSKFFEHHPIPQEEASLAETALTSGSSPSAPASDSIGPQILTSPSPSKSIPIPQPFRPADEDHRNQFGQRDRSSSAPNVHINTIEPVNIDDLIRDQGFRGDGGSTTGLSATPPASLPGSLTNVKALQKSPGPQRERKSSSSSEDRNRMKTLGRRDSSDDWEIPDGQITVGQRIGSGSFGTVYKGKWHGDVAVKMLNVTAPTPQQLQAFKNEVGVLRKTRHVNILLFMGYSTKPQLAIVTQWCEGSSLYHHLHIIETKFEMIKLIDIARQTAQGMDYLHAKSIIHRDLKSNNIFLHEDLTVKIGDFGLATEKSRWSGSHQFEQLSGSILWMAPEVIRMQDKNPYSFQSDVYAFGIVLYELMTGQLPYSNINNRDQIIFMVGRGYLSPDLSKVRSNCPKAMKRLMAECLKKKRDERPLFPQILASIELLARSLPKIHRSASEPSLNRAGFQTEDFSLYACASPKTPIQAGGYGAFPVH

Turning to `O=[N+]([O-])c1ccccc1-c1nc2sccn2c1-c1ccnc(N[C@@H]2CCCN(S(=O)(=O)c3ccc(Cl)cc3)C2)n1` [Example 131, N-{(3R)-1-[(4-chlorophenyl)sulfonyl]piperidin-3-yl}-4-[6-(2-nitrophenyl)imidazo[2,1-b][1,3]thiazol-5-yl]pyrimidin-2-amine], the IC50 came to 0.025 µM.
On to `Nc1ccccc1-c1nc2sccn2c1-c1ccnc(N[C@@H]2CCCN(S(=O)(=O)c3ccc(Cl)cc3)C2)n1` [Example 132, 4-[6-(2-aminophenyl)imidazo[2,1-b][1,3]thiazol-5-yl]-N-{(3R)-1-[(4-chlorophenyl)sulfonyl]piper-idin-3-yl}pyrimidin-2-amine], for which the IC50 was 0.444 µM.
The same measure, in the same setting: to `O=C(O)c1ccc(-c2nc3sccn3c2-c2ccnc(N[C@@H]3CCCN(S(=O)(=O)c4ccc(Cl)cc4)C3)n2)cc1O` [Example 133, 4-{5-[2-({(3R)-1-[(4-chlorophenyl)sulfonyl]piperidin-3-yl}amino)pyrimidin-4-yl]imidazo[2,1-b][1,3]thiazol-6-yl}-2-hydroxybenzoic acid] belongs 0.84 µM; to `O=S(=O)(c1ccc(Cl)cc1)N1CCC[C@@H](Nc2nccc(-c3c(-c4ccc(O)c(O)c4)nc4sccn34)n2)C1` [Example 134, 4-{5-[2-({(3R)-1-[(4-chlorophenyl)sulfonyl]piperidin-3-yl}amino)pyrimidin-4-yl]imidazo[2,1-b][1,3]thiazol-6-yl}benzene-1,2-diol], 0.024 µM; to `NCCCC(=O)Nc1ccccc1-c1nc2sccn2c1-c1ccnc(N[C@@H]2CCCN(S(=O)(=O)c3ccc(Cl)cc3)C2)n1` [Example 136, 4-amino-N-(2-{5-[2-({(3R)-1-[(4-chlorophenyl)sulfonyl]piperidin-3-yl}amino)pyrimidin-4-yl]imidazo[2,1-b][1,3]thiazol-6-yl}phenyl)butanamide], over 3 µM.
`COc1cccc(-c2nc3sccn3c2-c2ccnc(N[C@H]3CCCNC3)n2)c1` [Example 137, 4-[6-(3-methoxyphenyl)imidazo[2,1-b][1,3]thiazol-5-yl]-N-[(3S)-piperidin-3-yl]pyrimidin-2-amine]: the inhibition at 10 µM was 42%.
Regarding `NCCC(=O)Nc1ccccc1-c1nc2sccn2c1-c1ccnc(N[C@@H]2CCCN(S(=O)(=O)c3ccc(Cl)cc3)C2)n1` [Example 138, N~1~-(2-{5-[2-({(3R)-1-[(4-chlorophenyl)sulfonyl]piperidin-3-yl}amino)pyrimidin-4-yl]imidazo[2,1-b][1,3]thiazol-6-yl}phenyl)-beta-alaninamide], the inhibition at 10 µM amounted to 82%.
On to `COc1cccc(-c2nc3sccn3c2-c2ccnc(N[C@H]3CCCN(S(=O)(=O)c4ccc(Cl)cc4)C3)n2)c1` [Example 139, N-{(3S)-1-[(4-chlorophenyl)sulfonyl]piperidin-3-yl}-4-[6-(3-methoxyphenyl)imidazo[2,1-b][1,3]thiazol-5-yl]pyrimidin-2-amine], for which the inhibition at 10 µM stood at 41%.
On to `O=S(=O)(c1ccc(Cl)cc1)N1CCC[C@H](Nc2nccc(-c3c(-c4cccc(O)c4)nc4sccn34)n2)C1` [Example 140, 3-{5-[2-({(3S)-1-[(4-chlorophenyl)sulfonyl]piperidin-3-yl}amino)pyrimidin-4-yl]imidazo[2,1-b][1,3]thiazol-6-yl}phenol], for which the concentration for half-maximal inhibition (IC50) was found to be 0.953 µM.
The same measure, in the same setting: the value for `NCC(=O)Nc1ccccc1-c1nc2sccn2c1-c1ccnc(N[C@@H]2CCCN(S(=O)(=O)c3ccc(Cl)cc3)C2)n1` [Example 141, N~1~-(2-{5-[2-({(3R)-1-[(4-chlorophenyl)sulfonyl]piperidin-3-yl}amino)pyrimidin-4-yl]imidazo[2,1-b][1,3]thiazol-6-yl}phenyl)glycinamide] was 0.814 µM.
Take `COc1cccc(-c2nc3sccn3c2-c2ccnc(N[C@@H]3CCCN(S(=O)(=O)c4cccc(OC)c4)C3)n2)c1` [Example 142, 4-[6-(3-methoxyphenyl)imidazo[2,1-b][1,3]thiazol-5-yl]-N-{(3R)-1-[(3-methoxyphenyl)sulfonyl]piperidin-3-yl}pyrimidin-2-amine]: the inhibition at 10 µM is 56%.
As to `O=S(=O)(c1cccc(O)c1)N1CCC[C@@H](Nc2nccc(-c3c(-c4cccc(O)c4)nc4sccn34)n2)C1` [Example 143, 3-{[(3R)-3-({4-[6-(3-hydroxyphenyl)imidazo[2,1-b][1,3]thiazol-5-yl]pyrimidin-2-yl}amino)piperidin-1-yl]sulfonyl}phenol], the IC50 amounted to 0.019 µM.
Consider `COc1ccc(OC)c(-c2nc3sccn3c2-c2ccnc(N[C@@H]3CCCN(S(=O)(=O)c4ccc(Cl)cc4)C3)n2)c1` [Example 144, N-{(3R)-1-[(4-chlorophenyl)sulfonyl]piperidin-3-yl}-4-[6-(2,5-dimethoxyphenyl)imidazo[2,1-b][1,3]thiazol-5-yl]pyrimidin-2-amine], for which the inhibition at 10 µM stood at 69%.
In the case of `O=S(=O)(c1ccc(Cl)cc1)N1CCC[C@@H](Nc2nccc(-c3c(-c4cc(O)ccc4O)nc4sccn34)n2)C1` [Example 145, 2-{5-(2-({(3R)-1-[(4-chlorophenyl)sulfonyl]piperidin-3-yl}amino)pyrimidin-4-yl]imidazo[2,1-b][1,3]thiazol-6-yl}benzene-1,4-diol], the half-maximal inhibitory concentration (IC50) came out at 0.092 µM.
`COc1cccc(-c2nc3sccn3c2-c2ccnc(N[C@@H]3CCCN(C[C@@H]4COC(C)(C)O4)C3)n2)c1` [Example 146, N-((3R)-1-{[(4R)-2,2-dimethyl-1,3-dioxolan-4-yl]methyl}piper-idin-3-yl)-4-[6-(3-methoxy-phenyl)imidazo[2,1-b][1,3]thiazol-5-yl]pyrimidin-2-amine]: the inhibition at 10 µM came out at 43%.
On to `COc1cccc(-c2nc3sccn3c2-c2ccnc(N[C@@H]3CCCN(C[C@@H](O)CO)C3)n2)c1` [Example 147, (2R)-3-[(3R)-3-({4-[6-(3-methoxyphenyl)imidazo[2,1-b][1,3]thiazol-5-yl]pyrimidin-2-yl}amino)piperidin-1-yl]propane-1,2-diol], for which the half-maximal inhibitory concentration (IC50) was over 3 µM.
Same read-out and setting: to `OC[C@H](O)CN1CCC[C@@H](Nc2nccc(-c3c(-c4cccc(O)c4)nc4sccn34)n2)C1` [Example 148, (2R)-3-[(3R)-3-({4-[6-(3-hydroxyphenyl)imidazo[2,1-b][1,3]thiazol-5-yl]pyrimidin-2-yl}amino)piperidin-1-yl]propane-1,2-diol] belongs over 3 µM.
Consider `COc1ccc(S(=O)(=O)N2CCC[C@@H](Nc3nccc(-c4c(-c5cccc(OC)c5)nc5sccn45)n3)C2)cc1` [Example 149, 4-[6-(3-methoxyphenyl)imidazo[2,1-b][1,3]thiazol-5-yl]-N-{(3R)-1-[(4-methoxyphenyl)sulfonyl]piperidin-3-yl}pyrimidin-2-amine], for which the IC50 worked out at 0.188 µM.
As for `O=S(=O)(c1ccc(O)cc1)N1CCC[C@@H](Nc2nccc(-c3c(-c4cccc(O)c4)nc4sccn34)n2)C1` [Example 150, 3-{5-[2-({(3R)-1-[(4-hydroxyphenyl)sulfonyl]piperidin-3-yl}amino)pyrimidin-4-yl]imidazo[2,1-b][1,3]thiazol-6-yl}phenol], the half-inhibitory concentration (IC50) came to 0.009 µM.
With `COc1cccc(-c2nc3sccn3c2-c2ccnc(N[C@@H]3CCCN(S(C)(=O)=O)C3)n2)c1` [Example 151, 4-[6-(3-methoxyphenyl)imidazo[2,1-b][1,3]thiazol-5-yl]-N-[(3R)-1-(methylsulfonyl)piperidin-3-yl]pyrimidin-2-amine], the half-maximal inhibitory concentration (IC50) amounted to 0.85 µM.
`CS(=O)(=O)N1CCC[C@@H](Nc2nccc(-c3c(-c4cccc(O)c4)nc4sccn34)n2)C1` [Example 152, 3-[5-(2-{[(3R)-1-(methylsulfonyl)piperidin-3-yl]amino}pyrimidin-4-yl)imidazo[2,1-b][1,3]thiazol-6-yl]phenol]: the IC50 was 0.116 µM.
Same read-out and setting: to `O=S(=O)(c1ccc(F)cc1)N1CCC(Nc2nccc(-c3c(-c4ccc(F)cc4)nc4sccn34)n2)CC1` [Example 153, 4-[6-(4-fiuorophenyl)imidazo[2,1-b][1,3]thiazol-5-yl]-N-{1-[(4-fluorophenyl)sulfonyl]piperidin-4-yl}pyrimidin-2-amine] belongs 0.078 µM.
For `CCN1CCC(Nc2nccc(-c3c(-c4ccc(F)cc4)nc4sccn34)n2)CC1` [Example 154, N-(1-ethylpiperidin-4-yl)-4-[6-(4-fluorophenyl)imidazo[2,1-b][1,3]thiazol-5-yl]pyrimidin-2-amine], the inhibition at 10 µM was 36%.
As for `Fc1ccc(-c2nc3sccn3c2-c2ccnc(NC3CCNCC3)n2)cc1` [Example 155, 4-[6-(4-fluorophenyl)imidazo[2,1-b][1,3]thiazol-5-yl]-N-piperidin-4-ylpyrimidin-2-amine], the concentration for half-maximal inhibition (IC50) amounted to 2.36 µM.
For `CCNC(=O)N1CCC(Nc2nccc(-c3c(-c4ccc(F)cc4)nc4occn34)n2)CC1` [Example 156, N-ethyl-4-({4-[6-(4-fluorophenyl)imidazo[2,1-b][1,3]oxazol-5-yl]pyrimidin-2-yl}amino)piperidine-1-carboxamide], the IC50 was found to be 0.428 µM.
The same measure, in the same setting: to `O=S(=O)(c1ccc(F)cc1)N1CCC(Nc2nccc(-c3c(-c4ccc(F)cc4)nc4occn34)n2)CC1` [Example 157, 4-[6-(4-fluorophenyl)imidazo[2,1-b][1,3]oxazol-5-yl]-N-{1-[(4-fluorophenyl)sulfonyl]piperidin-4-yl}pyrimidin-2-amine] belongs 0.675 µM; to `COc1ccc(C(=O)N2CCC(Nc3nccc(-c4c(-c5ccc(F)cc5)nc5occn45)n3)CC2)cc1` [Example 158, 4-[6-(4-fluorophenyl)imidazo[2,1-b][1,3]oxazol-5-yl]-N-[1-(4-methoxybenzoyl)piperidin-4-yl]pyrimidin-2-amine], 0.465 µM.
Still for that read-out and setting: the value for `O=C(c1ccccc1)N1CCC(Nc2nccc(-c3c(-c4ccc(F)cc4)nc4occn34)n2)CC1` [Example 159, N-(1-benzoylpiperidin-4-yl)-4-[6-(4-fluorophenyl)imidazo[2,1-b][1,3]oxazol-5-yl]pyrimidin-2-amine] was 1.01 µM; that for `O=C(COc1ccc(Cl)cc1)N1CCC(Nc2nccc(-c3c(-c4ccc(F)cc4)nc4occn34)n2)CC1` [Example 160, N-{1-[(4-chlorophenoxy)acetyl]piperidin-4-yl}-4-[6-(4-fluorophenyl)imidazo[2,1-b][1,3]oxazol-5-yl]pyrimidin-2-amine] was 3.85 µM.
